The source of these data is patent US9630964B2, “Fluoro-9-methyl-β-carbolines” (priority 2013, dated 2017).

Data set [1] relates to BDNF (brain derived neurotrophic factor). The data set is described as follows: Examination on cellular level: concentration of BDNF. Format: cell-based.
Data set [2] concerns outer hair cells (OHC) in the inner ear. The data set is described as follows: Immunohistochemical experiments: dying of outer hair cells after acoustic trauma. The data set is classed as in vivo. The note with it: guinea pig, intratympanic, total 0.105 mg per ear, day 14. As for the experimental part:
To induce an acoustic trauma, guinea pigs were anesthetized with 60 mg/kg ketamine and 8 mg/kg xylazine. Then Bepanten ointment (Bayer) was administered to the eyes and the animal was put in a soundproof chamber. A calibrated speaker was placed directly above the head of the animal, wherein it was set to emit a half octave band, centered around 8 kHz, with a volume of 110 dB for duration of 30 minutes.
The thermosensitive, liquid mixture was administered under view by a Hamilton syringe directly in front of the round window membrane of the middle ear (10 μL). The first dose 6-fluoro-9-methyl-β-carboline (e.g. 0.07 mg) was administered one hour after the acoustic trauma in a concentration of 0.007 mg/μL and the second dose 6-fluoro-9-methyl-β-carboline (0.035 mg in a volume of 5 μL) on day 3. Here, only one ear per animal was treated, while the second ear served as intra-individual control. The control here is particularly abbreviated to “contr.”. In comparative experiments it was found, that administration of just an active agent vehicle (hydrogel) has no effect in comparison to a fully untreated ear. For each active agent (including the controls) four guinea pigs were examined.
On day 14 after the acoustic trauma the region of the ear was dissected so that it contained the cochlea. […] In this way the sound induced damage can be localized and quantified. […]

Data set [3] has as its system DKK1 (Dickkopf-related protein 1). The data set is described as follows: Quantitative RT-PCR, relative gene expression of DKK1 in SH-SY5Y cells. The data set is classed as cell-based, human. As for the experimental part:
SH-SY5Y cell lines, which were provided by the institute of human genetics of university hospital Eppendorf and which they in turn received from Braunschweig resource center, were used again for the RT-PCR experiments (reverse transcriptase polymerase chain reaction) carried out for this purpose.
The cells were incubated in MEM (Minimum essential medium, Life Technologies) with 10% FCS (fetal calf serum, Biochrom AG) and penicillin/streptomycin (Biochrom AG). The cells were seeded with a density of 1×10^5 cells/cm^2 in 25 cm^2 cell culture bottles (Falcon, cell culture treated) with 5 mL medium. Stock solutions of 10 mmol/L of compounds 9-methyl-β-carboline (AC-002 or 9MβC) and 6-fluoro-9-methyl-β-carboline (AC-102 or 6F9MβC), respectively were prepared in distillated water and sterile filtered. One day after the cell seeding the compounds were added in corresponding amounts (5-55 μL) to reach final concentration in the medium of 10 μM, 20 μM and 30 μM for 6F9MβC and 30 μM, 50 μM and 70 μM for 9MβC. The references received only the corresponding amount of solvent (distilled water). The medium was changed once a week.
The cells were regularly microscopically examined and harvest after 2, 7 and 14 days of incubation time, washed with PBS and immediately frozen at −80° C.
The RNA-isolation was done with the HighPure RNA Isolation kit of the company Roche. This isolation includes a DNaseI digestion. The concentration of RNA was measured with nanoDrop spectrometer and the RNA integrity was determined with the aid of the Bioanalyzer 2100 (Agilent). By using random hexamer primers, protector RNA inhibitor (Roche) and transcriptor reverse transcriptase (fermentas), 300 ng RNA were transcribed into cDNA per each sample.
After the reaction, this run was diluted 1:4 and thereof 2 μL per each quantitative RT-PCR were used. This was performed in a LightCycler 480 under standard conditions in the SybrGreen format with annealing temperatures determined for each primer individually. If possible, exon spanning primers were used.
The specificity was verified by melting curve analysis and subsequent gel electrophoresis. For each PCR the PCR efficiency and the Cq value was determined by the program LinRegPCR and these were used in further calculations. B2M (β2-microglobulin) was identified from multiple reference genes to be suitable for examination conditions. All results are results relative to the corresponding reference conditions, at which only solvent was administered for the specified period of time (i.e. 2 days, 7 days or 14 days). In FIGS. 5A to 5I are also relative gene expressions (relative to reference conditions) presented. Here, the 2-day exposition is presented in light grey, the 7-day exposition in dark grey and the 14-day exposition in black. Every measured value from FIGS. 5A-5I represents a mean value of 3 independent biologic samples.
Analogous to example 4 RT-PCR experiments with the inventive active agent 7-fluoro-9-methyl-β-carboline (7F9MβC) were also performed for some important cellular factors. The experimental procedure was here identical to the experiments with 6-fluoro-9-methyl-β-carboline and 9-methyl-β-carboline. Here the same (like for 6F9MβC) final concentrations of 30 μM, 50 μM and 70 μM 7F9MβC for the culture medium were employed. The examined factors were BDNF (brain-derived neurotrophic factor), Lif (Leukemia inhibitory factor), DRD2S (short variant of dopamine receptor subtype 2) as well as DKK1 (Dickkopf-related protein 1). […]

The conditions of data set [4]: guinea pig, in vivo.
Experimental: For better evaluation of half times of 9-methyl-β-carboline (9MβC), 6-fluoro-9-methyl-β-carboline (6F9MβC) and 7-fluoro-9-methyl-β-carboline (7F9MβC) in animal organism and more precisely in perilymph (the notified site of action), experiments with guinea pigs were conducted. Therefore, the respective active agent (in total 1.4 mg active agent per ear), packed in 40 μl of a hydrogel (18% Poloxamer 407 and 0.6% alginate), was administered at once in front of the membrane of the round window of narcotized guinea pigs. […] After expiry of the desired time (20 min, 2 h, 8 h or 24 h), each time 5 μL perilymph were removed under anesthesia from the top of the cochlea (apex). Subsequently, the animal was killed. Per each time (20 min, 2 h, 8 h or 24 h) measured values were taken of at least ears and averaged.
The concentration of the corresponding active agent in perilymph samples was determined by high-performance liquid chromatography (HPLC, partly also named as high-pressure liquid chromatography) and measurement of auto fluorescence of the respective active agent. For HPLC the eluent consisted to 45% of 90% acetonitrile and to 55% of ammonium acetate (40 mM, pH<5). The flow rate was 0.4 mL/min and injection volume was 10 μL. Each sample was diluted with 60% methanol, if the signal was too strong. After each run the injection needle was washed with 100% isopropanol. The detection limit was 20 fmol/L.
From the determined active agent concentrations the elimination half times were then calculated.

SMILES strings stand for the structures.

For `Cn1c2ccc(F)cc2c2ccncc21` [6F9MβC, 6-fluoro-9-methyl-β-carboline], the “increase of the concentration of BDNF” value in data set [1] is listed as “up to three times”. The “acoustic trauma-induced dying of outer hair cells” value in data set [2] is on record as “could be prevented”. In addition, the “DKK1 expression compared to the highest concentration of 9MβC” value in data set [3] (10 μM 6F9MβC) is listed as “comparable or even higher”. Moreover, in data set [3] (30 μM each, 14-day exposition), the “DKK1 expression relative to expression induced by 9MβC” value is reported as “comparable”. In addition, the elimination half time result in data set [4] was “approximately 6.0 h”.
